Measured values published in US20140371158A1, “BEAUVERICIN COMPOSITIONS AND METHODS THEREOF FOR INHIBITING THE HSP90 CHAPERONE PATHWAY” (Georgia Regents University, priority 2013, published 2014).
Values after ≈ are worked out from the molar mass of the structure shown.

Key:
[1] = test system: Hsp70, Hsp27, Hsp40 and HOP in Hs578T and MDA-MB-453 cells; assay: Western blot of markers for heat shock response; type: cell-based; conditions: 3 μM, 48 h, FIG. 7
Procedure: (§1) Breast cancer cell lines Hs578T and MDA-MB-453 at 40% confluence in 6-well plates (Corning #3516) were cultured for 24 h and then treated with various concentrations of beauvericin. Cells were harvested at indicated time and cell lysates were made. 15 μg of protein lysate were analyzed by Western blotting using specific antibodies for the indicated proteins.
(§2) Cell lysates prepared in Example 5 were analyzed for markers for heat shock response using western blot. These include overexpression of Hsp70, Hsp27, Hsp40 and HOP.

[2] = test system: Hsp90, Hsp70, Hsp40, HOP and p23; assay: PR reconstitution assay using the five purified chaperones; type: biochemical; conditions: FIG. 4
Procedure: (§3) Purified PR was adsorbed onto PR22 antibody-protein A-sepharose resin beads and was assembled into complexes as described previously (Kosano, et al., J Biol Chem 273:32973-9 (1998)). Briefly, about 0.05 μM PR was incubated with 1.4 μM Hsp70, 0.8 μM Hsp90β, 0.2 μM Hsp40 (Ydj), 0.08 μM HOP and 2.6 μM p23 in reaction buffer (20 mM Tris/HCl, pH 7.5, 5 mM MgCl2, 2 mM DTT, 0.01% NP-40, 50 mM KCl and 5 mM ATP). After incubation for 30 min at 30° C., 0.1 μM [^3H]-progesterone (American Radiolabeled Chemicals, Inc #ART 0063) was added. Samples were incubated on ice for 3 h at 4° C. Complexes were then washed three times with 1 ml of reaction buffer and assessed for bound progesterone by liquid scintillation using PerkinElmer Microbeta plate reader and for composition of protein complexes by SDS-PAGE (10% gel) and Coomassie blue staining.

[3] = test system: PRA complexes; assay: PR reconstitution assay in tubes, composition of protein complexes by SDS-PAGE; type: biochemical, rabbit; conditions: FIG. 3
Procedure: as §3, with “Biol Chem,” for “Biol Chem”, “with 100 μl of RRL.” for “with 1.4 μM Hsp70, 0.8 μM Hsp90β, 0.2 μM Hsp40 (Ydj), 0.08 μM HOP and 2.6 μM p23 in reaction buffer (20 mM Tris/HCl, pH 7.5, 5 mM MgCl2, 2 mM DTT, 0.01% NP-40, 50 mM KCl and 5 mM ATP).”, “ml” for “ml of”, “buffer (20 mM Tris/HCl, pH 7.5, 5 mM MgCl2, 2 mM DTT, 0.01% NP-40, 50 mM KCl and 5 mM ATP)” for “buffer”, “plate reader,” for “plate reader”

[4] = test system: Hsp90 chaperone (refolding of PRA in RRL); assay: Progesterone receptor (PR) reconstitution assay in rabbit reticulocyte lysate, recovery of hormone binding activity; type: biochemical
From the text: To identify novel small molecule inhibitors of molecular chaperones, a high-throughput functional screen was developed based on the isoform A of progesterone receptor (PRA), a well-established physiological client of Hsp90, and using rabbit reticulocyte lysate (RRL) as a source of molecular chaperones. This comprehensive functional assay measured the recovery of hormone binding activity of PRA after mild heat treatment. Purified PR was adsorbed onto PR22 antibody bound to protein A that was absorbed on 96 well plates. 100 μl of RRL lysate and ATP regeneration system was added to each well. After incubation for 30 min at 30° C., 0.1 μM [^3H]-progesterone (American Radiolabeled Chemicals, Inc #ART 0063) was added. Plates were incubated on ice for 2 h at 4° C. Complexes were then washed three times with 200 μl of reaction buffer (20 mM Tris/HCl, pH 7.5, 5 mM MgCl2, 2 mM DTT, 0.01% NP-40, 50 mM KCl and 5 mM ATP) and assessed for bound progesterone by liquid scintillation using PerkinElmer Microbeta plate reader.
Beauvericin was added to the PR reconstitution assay as in example 1, and hormone binding activity was measured.

[5] = test system: Hsp90 client proteins in MDA-MB-453 cells; assay: Western blot of Hsp90 client proteins, MDA-MB-453; type: cell-based; conditions: 3 μM, 48 h
Procedure: as §1, §2

[6] = test system: MDA-MB-453 breast cancer cells; assay: Cytotoxicity assay, MDA-MB-453; type: cell-based; conditions: 0-10 μM, 24, 48, 72 h, FIG. 6B
[7] = test system: Hsp90 client proteins in Hs578T cells; assay: Western blot of Hsp90 client proteins, Hs578T; type: cell-based; conditions: 3 μM, 48 h
Procedure: as §1, §2

[8] = test system: Hs578T breast cancer cells; assay: Cytotoxicity assay, Hs578T; type: cell-based; conditions: 0-10 μM, 24, 48, 72 h, FIG. 6A
[9] = Sigma-Aldrich product B7510, powder; cited from earlier work
[10] = test system: HeLa-PRB cells; assay: Immunocytochemistry and fluorescence microscopy, nucleocytoplasmic trafficking of steroid receptors; type: cell-based
Procedure: HeLa-PRB cells were grown in 24-well plates (Corning #3337) on micro-cover glasses (Electron Microscopy Sciences) to about 50% confluence in MEM, 1× (Cellgro #10-010-CV) medium supplemented with 10% fetal bovine serum. Cells were treated with 3 μM beauvericin (or DMSO control) for 24 h. Cells were fixed with 0.1 M PIPES, pH 6.95, 1 mM EGTA, pH 8.0, 3 mM MgSO4, 3% paraformaldehyde, permeabilized with 0.1% triton X-100, and blocked with 10% fetal bovine serum with 5% glycerol and stored at 4° C. Primary antibodies against PRB, GR and Hsp90 and secondary antibodies were prepared in the blocking buffer. Coverslips were washed and mounted on slides with ProLong Gold anti-fade reagent with 4′,6-diamidino-2-phenylindole (Invitrogen). Cells were imaged using a Zeiss Imager M1 microscope. Deconvolution of Z-stack images was done using an inverse filter algorithm with auto-linear normalization.

## CC(C)[C@@H]1OC(=O)[C@@H](Cc2ccccc2)N(C)C(=O)[C@H](C(C)C)OC(=O)[C@@H](Cc2ccccc2)N(C)C(=O)[C@H](C(C)C)OC(=O)[C@@H](Cc2ccccc2)N(C)C1=O [beauvericin]
[1]
  Hsp40 expression: down-regulates
  overexpression of HOP: does not induce overexpression
[1]; in contrast to 17-AAG
  overexpression of Hsp27: does not induce overexpression
  overexpression of Hsp70: does not induce overexpression
[2]
  inhibitory activity on five-protein system (PRA reconstitution): no inhibitory activity
[3]
  level of Hsp90 in PRA complexes: decreased
[3]; mass spectrometry
  recruitment of Exportin-7 into PRA complexes: caused the recruitment of a novel protein into these complexes
[4]; FIG. 1, compared with 17-AAG
  inhibition of reconstitution of PRA in RRL (hormone binding activity): comparable efficacy to the classical Hsp90 inhibitor 17-AAG
[4]; FIG. 2, 0, 1, 5, 10, 20, 40 μM
  inhibition of the ability of the Hsp90 chaperone to refold PRA: concentration-dependent manner
[5]
  AKT destabilization: not
  Her2 destabilization: reverse profile
[5]; FIG. 7B
  cellular degradation of Hsp90 clients (AKT, pAKT, CDK4, ILK, Her2, Her3, GR): caused cellular degradation
[6]
  in vitro cytotoxicity (relative survival): potent in vitro cytotoxicity
[7]
  AKT destabilization: destabilized
  Her2 destabilization: reverse profile
[7]; FIG. 7A
  cellular degradation of Hsp90 clients (AKT, pAKT, CDK4, ILK, Her2, Her3, GR): caused cellular degradation
[8]
  in vitro cytotoxicity (relative survival): potent in vitro cytotoxicity
[9]
  solubility in acetonitrile: 1000 µg/mL (≈ 1280 µM)
  solubility in methanol: 1000 µg/mL (≈ 1280 µM)
[10]; HeLa-PRB cells
  PRB stability by Western blot: not destabilized
[10]; HeLa-PRB, 3 μM, 24 h
  PRB recognition by the monoclonal antibody PR6 in immunocytochemistry: reproducibly blocked
  glucocorticoid receptor (GR) localization: lock it in the nucleus
